The IC50 is the concentration that gives 50% inhibition.

SMILES strings stand for the structures. Read-outs that look alike come from different tables or passages of the source.

Results on 16 compounds are retold here after patent US8975265B2, “Substituted imidazo[1,2-a]pyrimidines and —pyridines” (Bayer Intellectual Property GmbH, priority 2010, dated 2015).

Experiment [1] addresses His-tagged human recombinant kinase full-length Akt1 (Homo sapiens (Human), UniProt P31749). Kind of experiment: Akt1 kinase assay (TR-FRET). The class given is biochemical. As to conditions: 10 μM ATP; read-out: Akt1, median IC50. The gist of the method: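 Full-length His-tagged Akt1 (about 0.05 ng/μl final) preincubated 15 min at 22 °C with compound in 50 mM TRIS/HCl pH 7.5, 5 mM MgCl2, 1 mM DTT, 0.02% Triton X-100; biotinylated peptide substrate. Phosphopeptide detected by TR-FRET (Eu-chelate antibody to streptavidin-XL665) after 1 h at 22 °C.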
(In TR-FRET formats the signal depends on donor and acceptor labels being close together.)

For experiment [2], the system named is p-AKT1/2/3-S473 in KPL4 breast tumour cell line. Kind of experiment: Cellular p-AKT1/2/3-S473 assay. Format: cell-based. The following applies: KPL4 breast tumour cell line, 2 hours treatment; read-out: pAKT-S743 median IC50. The method in brief: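 KPL4 cells (PIK3CA H1047R, HER2 0/E, hormone independent) were seeded at 60–80% confluency, cultured overnight, then exposed to compound for 2 h at 37 °C. pAKT-S473 and total AKT measured together by MSD Akt Duplex on 20 µg extract; pAKT expressed as % of total AKT, at least duplicate with independent repeats.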

Experiment [3] relates to p-4E-BP1-T70 in KPL4 breast tumour cell line. Kind of experiment: Cellular p-4E-BP1-T70 assay. The following applies: 2 hours treatment, read-out: P4EBP1-T70 median IC50. Format: cell-based. The gist of the method:
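KPL4 cells (PIK3CA H1047R, hormone independent) seeded at 60-80% confluency, incubated overnight, then exposed to compounds for 2 h at 37 °C. Lysates assayed for phospho-4E-BP1 T70 by AlphaScreen SureFire, in at least duplicate with independent repetition.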

Experiment [4] deals with KPL-4 breast cancer cell line. Kind of experiment: Tumor cell proliferation assay (CellTiter-Glo, 72 h), KPL-4. As to conditions: KPL4, 72h drug exposure. Format: cell-based. The method in brief: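 KPL-4 cells were treated with compound for 72 h at 37°C. Viability was measured as ATP by CellTiter-Glo luminescence, with a separate t=0 plate read after overnight attachment. A reference compound was run as standard.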
Background: ATP-based viability assays read luminescence as a measure of living cells.

The subject of experiment [5] is p-AKT S473 in PC3 human prostate tumours. Description: In vivo xenograft mechanism of action study. More on the design: species or system athymic nude mice. The following applies: Mus musculus, po, PC3 tumours in nude mice, once 50 mg/kg p.o. The text has this: In Vivo Xenograft Mechanism of Action Study
To this extent PC3 human prostate tumours were xenografted onto athymic nude mice. PC3 tumour cells were cultivated according to ATCC protocols in recommended media contained 10% FCS and harvested for transplantation in a subconfluent (70%) state. 3×10^6 tumour cells suspended in 50% Matrigel were subcutaneously implantated into the inguinal region of male mice. Tumours were allowed to grow to the predetermined size of 60-80 mm^2. When the tumours were approximately in size, the animals were randomized to treatment and control groups (groups size: 9 animals) and treatment was started. Animals were treated once with 50 mg/kg compound or vehicle per oral administration (p.o.) carried out via a gastric tube. Treatment of each animal was based on individual body weight. At 2, 5 and 24 hours post treatment 3 animals each were sacrificed and the PC3 tumours excised. Tumour samples of approximately 5×5×5 mm were lysed on ice in MSD lysis buffer in the presence of protease and phosphatase inhibitors using Tissue Lyzer (Qiagen, Germany). The levels of p-AKT S473 in extracts from tumour tissue were analysed in an ELISA based assay. This assay is based on the “Akt Duplex” of the MULTI-SPOT® Assay System (Fa. Meso Scale Discovery, Cat# N41100B-1) following manufacturers instructions. Each assay used 20 μg of protein extract and measured total AKT and p-AKT content simultaneously in one well. All measurements where at least done in duplicates and confirmed by independent repetition.
Values for P-AKT are expressed as percentage of P-AKT level compared to total-AKT content of the extracts. Vehicle treated tumours were analyzed to determine the basal level of P-AKT in this model and used as a normalization control to determine the % P-AKT relative to vehicle levels.

A further experiment has as its system LnCAP. Kind of experiment: Tumor cell proliferation assay (CellTiter-Glo, 72 h), LnCAP. Format: cell-based. The following applies: Homo sapiens, 72h drug exposure. The protocol:
Compounds were tested in a cell-based assay that measures the capacity of the compounds to inhibit tumour cell proliferation following a 72h drug exposure. Cell viability is determined using CellTiter-Glow® (CTG, Promega, cat# G7571/2/3). The CellTiter-Glo® Luminescent Cell Viability Assay is a homogeneous method to determine the number of viable cells in culture. Detection is based on using the luciferase reaction to measure the amount of ATP from viable cells. The amount of ATP in cells correlates with cell viability. Within minutes after a loss of membrane integrity, cells lose the ability to synthesize ATP, and endogenous ATPases destroy any remaining ATP; thus the levels of ATP fall precipitously.
Cells were plated at 3000-5000 cells/well (depending on the cell lines) in 90 μL growth medium on MTPs (Corning; #3603, black plate, clear flat bottom). For each cell line assayed, cells were plated onto a separate plate for determination of […] at t=0 hour and t=72 hour time points. Following overnight incubation at 37° C., chemiluminescence values for the t=0 samples were determined after adding 10 μl medium and 100 μl CTG solution according to manufacture protocol. Plates for the t=72 hour time points were treated with compounds diluted into growth medium at ten times final concentration added in 10 μL to the cell culture plate. Cells were then incubated for 72 hours at 37° C. Chemiluminescence values for the t=72 hour samples were determined. […] Experiments were controlled using a reference compound as standard.

A further experiment relates to MCF7. Kind of experiment: Tumor cell proliferation assay (CellTiter-Glo, 72 h), MCF7. The class given is cell-based. As to conditions: Homo sapiens, 72h drug exposure. The gist of the method:
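Cells seeded at 3000–5000/well and incubated overnight, then exposed to compound for 72 h at 37 °C. Viability measured by CellTiter-Glo ATP luminescence, with a separate plate read at t=0.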

Where [6] appears, read: 2 hours post treatment, read-out: P-AKT % relative to control at 2 hours.
[7] abbreviates: 5 hours post treatment, read-out: P-AKT % relative to control at 5 hours.

His-tagged human recombinant kinase full-length Akt1, sequence (P31749 whole entry): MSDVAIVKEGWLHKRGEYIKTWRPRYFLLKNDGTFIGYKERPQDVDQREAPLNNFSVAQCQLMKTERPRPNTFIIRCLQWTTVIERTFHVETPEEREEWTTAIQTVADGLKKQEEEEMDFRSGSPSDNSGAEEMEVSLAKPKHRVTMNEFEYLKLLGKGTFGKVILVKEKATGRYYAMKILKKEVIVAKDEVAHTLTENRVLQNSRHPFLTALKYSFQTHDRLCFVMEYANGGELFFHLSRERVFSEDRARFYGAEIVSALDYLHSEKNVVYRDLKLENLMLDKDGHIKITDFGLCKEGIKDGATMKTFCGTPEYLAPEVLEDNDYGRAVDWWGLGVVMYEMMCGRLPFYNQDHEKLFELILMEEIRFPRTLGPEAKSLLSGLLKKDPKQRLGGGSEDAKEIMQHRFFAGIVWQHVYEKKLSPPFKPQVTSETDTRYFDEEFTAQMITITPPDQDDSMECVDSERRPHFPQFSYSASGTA

As to `COc1cc(C(N)=O)cn2c(-c3ccccc3)c(-c3ccc(C4(N)CCC4)cc3)nc12` [Example 1-13], the IC50 in experiment [1] came out at 24 nM; in experiment [2] it was 35 nM; in experiment [3], 1020 nM; in experiment [4], 900 nM; in the experiment with LnCAP, 1100 nM; in the experiment on MCF7 it was 400 nM. Moreover, the response vs control in vivo at 50 mg/kg in experiment [5] (setting [6]) turned out to be 95.7%; in experiment [5] (setting [7]), 152%.

Turning to `CCc1ccn2c(-c3ccccc3)c(-c3ccc(C4(N)CCC4)cc3)nc2c1` [Example 2-21], the concentration for half-maximal inhibition (IC50) in experiment [1] was 1660 nM; in experiment [2], 537 nM; in experiment [4], 2000 nM; in the experiment with LnCAP, 1900 nM; with MCF7, 2000 nM.

Turning to `NC1(c2ccc(-c3nc4cc(-c5cccnc5)ccn4c3-c3ccccc3)cc2)CCC1` [Example 2-110], the IC50 is 129 nM in experiment [1]; 41 nM in experiment [2]; 1700 nM in experiment [4]; 500 nM in the experiment on LnCAP; 700 nM in the experiment on MCF7. Also, the response vs control in vivo at 50 mg/kg is 10.2% in experiment [5] (setting [6]) and 16.4% in experiment [5] (setting [7]).

Regarding `NC1(c2ccc(-c3nc4cc(-c5cnc[nH]5)ccn4c3-c3ccccc3)cc2)CCC1` [Example 2-115], the IC50 was 192 nM in experiment [2], 1800 nM in experiment [4] and 1700 nM with LnCAP.

As for `COC(=O)CCc1ccn2c(-c3ccccc3)c(-c3ccc(C4(N)CCC4)cc3)nc2c1` [Example 2-125], the IC50 in experiment [1] was 3440 nM; in experiment [2] it was 3070 nM; in experiment [4], 3100 nM; in the experiment with LnCAP it was 9900 nM.

For the compound `CCNC(=O)c1ccn2c(-c3ccccc3)c(-c3ccc(C4(N)CCC4)cc3)nc2c1` [Example 2-126], the 50% inhibitory concentration (IC50) in experiment [1] was determined as 601 nM; in experiment [2], 125 nM; in experiment [4] it was 1600 nM; in the experiment with LnCAP it was 1000 nM.

As to `NC1(c2ccc(-c3nc4cc(C(=O)NO)ccn4c3-c3ccccc3)cc2)CCC1` [Example 2-127], the IC50 in experiment [1] was determined as 132 nM; in experiment [2], 1680 nM; in experiment [3], 4870 nM; in experiment [4], 5400 nM; with LnCAP, 1200 nM.

On to `Cn1cncc1-c1ccc2nc(-c3ccc(C4(N)CCC4)cc3)c(-c3ccccc3)n2c1` [Example 2-133], for which the IC50 stood at 244 nM in experiment [2], 2000 nM in experiment [4] and 1700 nM in the experiment with LnCAP.

For the compound `Cn1cc(-c2ccc3nc(-c4ccc(C5(N)CCC5)cc4)c(-c4ccccc4)n3c2)cn1` [Example 2-134], the concentration for half-maximal inhibition (IC50) was 691 nM in experiment [1], 132 nM in experiment [2] and 1800 nM in the experiment on LnCAP.

As to `CCOC(=O)c1ccc2nc(-c3ccc(C4(N)CCC4)cc3)c(-c3ccccc3)n2c1` [Example 2-143], the half-inhibitory concentration (IC50) in experiment [1] came out at 93 nM; in experiment [2], 901 nM; in experiment [3] it was 1210 nM; in experiment [4], 9500 nM; with LnCAP it was 1800 nM.

As to `CC(=O)c1ccc2nc(-c3ccc(C4(N)CCC4)cc3)c(-c3ccccc3)n2c1` [Example 2-144], the IC50 in experiment [1] was 55 nM; in experiment [2] it was 91 nM; in experiment [3], 1310 nM; in experiment [4] it was 1700 nM; with MCF7 it was 1300 nM. In addition, the values for the response vs control in vivo at 50 mg/kg in experiment [5] (setting [6]) and in experiment [5] (setting [7]) were 6.3% and 8%, respectively.

On to `COc1cc(Cl)cn2c(-c3ccccc3)c(-c3ccc(C4(N)CCC4)cc3)nc12` [Example 2-145], for which the IC50 in experiment [1] was 24 nM; in experiment [2], 105 nM; in experiment [3] it was 1210 nM; in experiment [4] it was 1000 nM; in the experiment on MCF7, 300 nM. For the same compound, the response vs control in vivo at 50 mg/kg in experiment [5] (setting [6]) amounted to 33%; in experiment [5] (setting [7]) it was 38%.

Turning to `NC(=O)c1cccn2c(-c3ccccc3)c(-c3ccc(C4(N)CCC4)cc3)nc12` [Example 6-0, 2-[4-(1-amino-cyclobutyl)-phenyl]-3-phenyl-imidazo[1,2-a]pyridine-8-carboxylic acid amide], the IC50 is 58 nM in experiment [1]; 16 nM in experiment [2]; 620 nM in experiment [3]; 800 nM in experiment [4]; 400 nM in the experiment on MCF7. Further, the response vs control in vivo at 50 mg/kg in experiment [5] (setting [6]) was determined as 5.8%; in experiment [5] (setting [7]), 6%.

For the compound `NC(=O)c1cc(Cl)c2nc(-c3ccc(C4(N)CCC4)cc3)c(-c3ccccc3)n2c1` [Example 6-1, 2-[4-(1-amino-cyclobutyl)-phenyl]-8-chloro-3-phenyl-imidazo[1,2-a]pyridine-6-carboxylic acid amide], the concentration for half-maximal inhibition (IC50) in experiment [1] came to 12 nM; in experiment [2] it was 5 nM; in experiment [4], 300 nM; in the experiment with LnCAP it was 400 nM; in the experiment on MCF7, 300 nM. Besides, the response vs control in vivo at 50 mg/kg in experiment [5] (setting [6]) was found to be 7.7%; in experiment [5] (setting [7]), 7.5%.

For `NC1(c2ccc(-c3nc4ccc(-c5cccnc5O)cn4c3-c3ccccc3)cc2)CCC1` [Example 11-0, 3-{2-[4-(1-amino-cyclobutyl)-phenyl]-3-phenyl-imidazo[1,2-a]pyridin-6-yl}-pyridin-2-ol], the half-inhibitory concentration (IC50) in experiment [1] was found to be 1510 nM; in experiment [2] it was 588 nM; in experiment [4] it was 2200 nM; in the experiment on LnCAP, 2000 nM.

Consider `Cc1cc(-c2ccc3nc(-c4ccc(C5(N)CCC5)cc4)c(-c4ccccc4)n3c2)[nH]n1` [Example 12-0, 1-{4-[6(5-methyl-2H-pyrazol-3-yl)-3-phenyl-imidazo[1,2-a]pyridin-2-yl]-phenyl}-cyclobutylamine], for which the half-inhibitory concentration (IC50) in experiment [1] is 688 nM; in experiment [2], 339 nM; in experiment [4], 1900 nM; in the experiment with LnCAP, 1700 nM.
